{
  "source": "patent US20260248799A1",
  "about": "“COMBINATIONS OF RETINALDEHYDE DEHYDROGENASE 1 (RALDH1) INHIBITORS AND IMMUNOSTIMULATORS AND METHODS USING SAME” (The Trustees of the University of Pennsylvania, priority 2023, published 2026)",
  "key": {"Huh7 tumors": {"system": "Huh7 tumors", "assay": "Huh7 tumors in NU/J mice", "assay_type": "in vivo, mouse", "protocol": "FIGS. 26A-26H: Raldh1-INH suppresses HCC growth by altering macrophage functions. FIG. 26A: Huh7 tumor-bearing NU/J mice were treated with C86 (i.p, 10 mg/kg) every day starting when tumor size was approximately 50 mm^3. Tumor volume was measured every 2 days. […] Three or more independent experiments were performed with at least three replicates per experimental group. Unpaired t test, two-tailed. FIG. 26B: AldeRed assay at endpoint on Huh7 tumor treated as described in FIG. 26A. […] Three or more independent experiments were performed with at least three replicates per experimental group. Unpaired t test, two-tailed. FIG. 26C: Huh7 tumor-bearing nude mice were treated with different dose of C86 every day. Tumor volume was measured every 2-3 days. […] Two independent experiments were performed with at least three replicates per experimental group. Unpaired t test, two-tailed. FIG. 26D: Body weight measured every 3-5 days for the experiment outlined in FIG. 26C. FIG. 26E: Parental Huh7 or RALDH1-KO Huh7 cells were implanted subcutaneously into NU/J mice and treated with C86 (i.p, 10 mg/kg) or vehicle (control) every day. […] Three or more independent experiments were performed with at least three replicates per experimental group. Unpaired t test, two-tailed. FIG. 26F: Huh7 tumor-bearing NU/J mice were treated with clodronate liposomes (CloLipo) and/or C86. […] Two independent experiments were performed with at least three replicates per experimental group. Unpaired t test, two-tailed. FIG. 26G: Murine Hepa 1-6 tumors were implanted subcutaneously into C57BL6/J WT mice or LyMCre:RosadnRAR mice. Expression of the dominant negative RAR in myeloid cells slows tumor growth. Two independent experiments were performed with at least three replicates per experimental group. Unpaired t test, two-tailed. FIG. 26H: Huh7 cells were implanted subcutaneously into NU/J mice. When tumor size reached about 50 mm^3, mice were intraperitoneally injected vehicle (control) or C86 daily with or without BMS493 treatment intratumorally every 3 days. BMS493 and C86 suppress tumor growth with the combination showing higher suppression than monotherapy. *, P<0.05; **, P<0.01; ***, P<0.001; n.s., not significant.\nCultured Huh7, Huh1, Hepa 1-6, Hep55, and FS (as indicated in figure legends) tumor cells were detached using 0.25% trypsin (Gibco, catalog #25200056), washed once with 1×PBS, and counted before implantation. 3~6×10^6 tumor cells were implanted subcutaneously (s.c.) into shaved flanks of recipient mice. Tumor dimensions were measured using a caliper starting at the day indicated in the accompanying figure legend and every two to three days thereafter; volume was calculated by using formula Length*Width^2/2. Tumor volumes of 2,000 mm^3, tumor length of 2 cm or tumor ulceration were used as endpoints for survival analyses.\nCompound-86, 97 and 99 powder was dissolved in 20% HPβCD saline (2-Hydroxypropyl)-[…]). Drug was administered i.p. or p.o. starting when tumor volume reached 50-150 mm^3 and repeated every day."}, "[1]": {"assay": "IP pharmacokinetics and tissue distribution of C-86 in C57BL/6J mice", "assay_type": "in vivo, mouse", "details": "for AUC(0-inf) / Cmax: male, C57BL/6J, mouse, mice, IP"}, "Progesterone PR-B": {"target": "T1, Progesterone PR-B (Homo sapiens, UniProt P06401)", "T1 construct": "Eurofins Cereps Panlabs (contract panel)", "T1 sequence (P06401 whole entry)": "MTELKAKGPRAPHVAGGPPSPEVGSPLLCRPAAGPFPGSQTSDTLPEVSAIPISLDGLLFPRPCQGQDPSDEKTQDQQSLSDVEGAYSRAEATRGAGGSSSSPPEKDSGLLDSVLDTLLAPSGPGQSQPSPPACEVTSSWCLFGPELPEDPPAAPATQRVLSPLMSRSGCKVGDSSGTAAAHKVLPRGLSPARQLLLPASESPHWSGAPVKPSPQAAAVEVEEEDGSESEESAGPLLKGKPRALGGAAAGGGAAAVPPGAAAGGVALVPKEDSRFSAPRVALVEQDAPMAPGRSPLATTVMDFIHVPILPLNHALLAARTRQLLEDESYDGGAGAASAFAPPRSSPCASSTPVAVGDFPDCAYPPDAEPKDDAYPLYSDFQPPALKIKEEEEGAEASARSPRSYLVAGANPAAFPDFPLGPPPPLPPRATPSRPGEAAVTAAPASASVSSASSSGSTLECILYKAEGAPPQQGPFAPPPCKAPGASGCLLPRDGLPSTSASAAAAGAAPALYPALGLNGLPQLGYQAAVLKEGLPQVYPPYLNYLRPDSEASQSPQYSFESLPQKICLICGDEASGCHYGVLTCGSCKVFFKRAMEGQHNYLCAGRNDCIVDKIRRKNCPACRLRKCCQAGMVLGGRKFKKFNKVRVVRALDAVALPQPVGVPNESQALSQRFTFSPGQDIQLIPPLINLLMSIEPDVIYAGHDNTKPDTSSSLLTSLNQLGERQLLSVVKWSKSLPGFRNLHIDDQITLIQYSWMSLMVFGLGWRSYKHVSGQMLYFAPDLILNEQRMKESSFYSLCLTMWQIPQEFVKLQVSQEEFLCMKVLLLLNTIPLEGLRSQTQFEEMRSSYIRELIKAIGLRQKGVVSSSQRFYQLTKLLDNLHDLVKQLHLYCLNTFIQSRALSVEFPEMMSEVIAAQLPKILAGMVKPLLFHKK", "assay": "Safetyscreen: Progesterone PR-B", "assay_type": "binding", "details": "read-out: % Inh. Progesterone PR-B"}, "SNU398 cells": {"system": "SNU398 cells", "assay": "In vitro proliferation and viability of human HCC cell lines", "assay_type": "cell-based", "details": "SNU398, 1, 10, 100 and 1000 nM", "protocol": "FIG. 20D: LC-MS for ATRA on Hepa1-6 (mouse HCC cell line) or SNU398 (human HCC cell line). […] Two independent experiments were performed with at least three replicates per experimental group. Unpaired t test, two-tailed. *, P<0.05; **, P<0.01; ***, P<0.001. […] Cell proliferation was measured by counting live cell numbers at each time point. […] Cell proliferation was measured by counting live cell numbers at each time point.\nCell viability was measured by flow cytometry (FCM) with 7-AAD staining (Y-axis indicates percentage of 7-AAD negative cells).\n1×10^4~2×10^5 of Huh7, Huh1, Hepa 1-6, and Hep55 tumor cells were plated in triplicate in 48-well plates or 6-well plates. Viable cell numbers were counted every day for three to four days."}, "[2]": {"target": "T2, Protein Tyrosine Kinase, Insulin Receptor (Homo sapiens, UniProt P06213)", "T2 construct": "Eurofins Cerep Panlabs (contract panel)", "T2 sequence (P06213 28-1382)": "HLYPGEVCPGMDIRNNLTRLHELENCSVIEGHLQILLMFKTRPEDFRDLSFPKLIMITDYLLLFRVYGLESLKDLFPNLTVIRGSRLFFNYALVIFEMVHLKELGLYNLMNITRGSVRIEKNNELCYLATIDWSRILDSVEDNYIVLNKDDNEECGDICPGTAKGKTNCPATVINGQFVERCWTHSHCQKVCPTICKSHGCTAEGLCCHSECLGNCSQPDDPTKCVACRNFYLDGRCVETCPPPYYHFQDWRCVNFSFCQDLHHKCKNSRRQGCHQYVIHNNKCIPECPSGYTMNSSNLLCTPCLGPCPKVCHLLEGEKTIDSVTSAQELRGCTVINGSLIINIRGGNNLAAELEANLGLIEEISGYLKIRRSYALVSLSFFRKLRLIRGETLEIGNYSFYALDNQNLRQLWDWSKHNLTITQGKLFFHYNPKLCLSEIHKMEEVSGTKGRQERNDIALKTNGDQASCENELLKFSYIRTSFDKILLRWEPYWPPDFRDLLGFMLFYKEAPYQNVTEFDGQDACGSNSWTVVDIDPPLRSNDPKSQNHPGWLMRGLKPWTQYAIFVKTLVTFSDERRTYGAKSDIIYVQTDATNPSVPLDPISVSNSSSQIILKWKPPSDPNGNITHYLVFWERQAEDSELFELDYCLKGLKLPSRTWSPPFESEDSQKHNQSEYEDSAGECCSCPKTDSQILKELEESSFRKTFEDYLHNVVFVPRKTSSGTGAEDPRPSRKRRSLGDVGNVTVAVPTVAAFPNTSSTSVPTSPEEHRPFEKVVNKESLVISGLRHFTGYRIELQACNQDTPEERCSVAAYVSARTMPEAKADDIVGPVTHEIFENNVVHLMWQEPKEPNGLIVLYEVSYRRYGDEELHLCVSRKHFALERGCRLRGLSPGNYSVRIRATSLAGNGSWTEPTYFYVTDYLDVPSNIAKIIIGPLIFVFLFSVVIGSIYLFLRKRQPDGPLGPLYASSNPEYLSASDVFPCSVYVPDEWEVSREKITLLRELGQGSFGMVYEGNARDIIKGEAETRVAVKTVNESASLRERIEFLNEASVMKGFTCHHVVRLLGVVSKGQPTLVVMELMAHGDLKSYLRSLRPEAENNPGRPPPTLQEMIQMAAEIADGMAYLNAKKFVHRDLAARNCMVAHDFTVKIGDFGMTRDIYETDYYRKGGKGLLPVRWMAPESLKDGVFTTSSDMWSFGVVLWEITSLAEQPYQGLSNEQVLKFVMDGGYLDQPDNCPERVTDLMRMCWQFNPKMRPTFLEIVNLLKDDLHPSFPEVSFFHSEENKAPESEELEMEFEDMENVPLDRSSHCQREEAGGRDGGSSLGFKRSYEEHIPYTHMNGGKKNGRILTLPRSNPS", "assay": "Safetyscreen: Insulin Receptor kinase", "assay_type": "biochemical", "details": "read-out: % Inh. Protein Tyrosine Kinase, Insulin Receptor"}, "[3]": {"target": "T3, Cholinesterase, Acetyl, ACES (Homo sapiens, UniProt P22303)", "T3 construct": "Eurofins Cerep Panlabs (contract panel)", "T3 sequence (P22303 32-614)": "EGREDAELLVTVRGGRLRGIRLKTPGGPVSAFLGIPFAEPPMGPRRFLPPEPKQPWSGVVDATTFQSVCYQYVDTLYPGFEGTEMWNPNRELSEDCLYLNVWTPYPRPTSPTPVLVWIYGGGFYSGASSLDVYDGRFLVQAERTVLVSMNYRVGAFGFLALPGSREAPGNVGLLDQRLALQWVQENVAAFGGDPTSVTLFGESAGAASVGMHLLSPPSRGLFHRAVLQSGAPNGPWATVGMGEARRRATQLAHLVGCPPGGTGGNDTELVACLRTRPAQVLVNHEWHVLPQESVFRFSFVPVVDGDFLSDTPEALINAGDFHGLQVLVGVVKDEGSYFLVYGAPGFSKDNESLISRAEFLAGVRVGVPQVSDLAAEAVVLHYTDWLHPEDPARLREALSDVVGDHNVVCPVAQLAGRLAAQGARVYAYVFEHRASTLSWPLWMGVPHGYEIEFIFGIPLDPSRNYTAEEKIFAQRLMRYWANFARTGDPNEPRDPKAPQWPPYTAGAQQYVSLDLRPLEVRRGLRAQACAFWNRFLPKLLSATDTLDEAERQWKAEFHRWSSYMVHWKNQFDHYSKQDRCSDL", "assay": "Safetyscreen: Acetyl cholinesterase", "assay_type": "biochemical", "details": "read-out: % Inh. Cholinesterase, Acetyl, ACES"}, "Glutamate, NMDA, Glycine": {"system": "Glutamate, NMDA, Glycine", "assay": "Safetyscreen: NMDA, Glycine", "assay_type": "binding, rat", "details": "10 μM"}, "Muscarinic M2": {"target": "T4, Muscarinic M2 (Homo sapiens, UniProt P08172)", "T4 construct": "Eurofins Cereps Panlabs (contract panel)", "T4 sequence (P08172 whole entry)": "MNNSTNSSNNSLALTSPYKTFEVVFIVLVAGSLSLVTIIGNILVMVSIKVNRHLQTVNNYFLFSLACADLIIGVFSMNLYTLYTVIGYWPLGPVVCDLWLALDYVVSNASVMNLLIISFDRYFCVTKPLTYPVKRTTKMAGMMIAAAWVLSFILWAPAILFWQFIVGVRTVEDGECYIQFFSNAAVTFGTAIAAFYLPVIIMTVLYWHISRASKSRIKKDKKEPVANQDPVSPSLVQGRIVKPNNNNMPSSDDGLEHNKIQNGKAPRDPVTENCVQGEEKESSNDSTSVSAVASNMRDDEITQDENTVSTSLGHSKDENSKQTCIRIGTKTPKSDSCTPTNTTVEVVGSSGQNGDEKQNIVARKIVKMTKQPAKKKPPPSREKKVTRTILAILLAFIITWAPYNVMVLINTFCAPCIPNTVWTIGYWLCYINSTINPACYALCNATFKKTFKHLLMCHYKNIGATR", "assay": "Safetyscreen: Muscarinic M2", "assay_type": "binding", "details": "read-out: % Inh. Muscarinic M2"}, "Adrenergic α1B": {"target": "T5, Adrenergic α1B (Rattus norvegicus, UniProt P15823)", "T5 construct": "Eurofins Cerep Panlabs (contract panel)", "T5 sequence (P15823 whole entry)": "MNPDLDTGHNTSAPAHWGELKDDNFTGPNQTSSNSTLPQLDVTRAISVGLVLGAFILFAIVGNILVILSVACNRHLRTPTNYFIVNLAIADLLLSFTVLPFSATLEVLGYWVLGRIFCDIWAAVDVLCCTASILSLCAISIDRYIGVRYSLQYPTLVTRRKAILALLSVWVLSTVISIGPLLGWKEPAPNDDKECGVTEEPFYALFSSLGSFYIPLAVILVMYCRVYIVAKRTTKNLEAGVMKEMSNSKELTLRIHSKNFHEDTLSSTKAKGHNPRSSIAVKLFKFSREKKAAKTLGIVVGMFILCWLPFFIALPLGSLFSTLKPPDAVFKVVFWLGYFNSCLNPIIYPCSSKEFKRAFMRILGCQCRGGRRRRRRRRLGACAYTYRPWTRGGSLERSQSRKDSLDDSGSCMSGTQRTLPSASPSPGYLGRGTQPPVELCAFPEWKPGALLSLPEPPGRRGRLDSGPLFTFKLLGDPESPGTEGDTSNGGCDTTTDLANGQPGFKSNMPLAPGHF", "assay": "Safetyscreen: Adrenergic α1B", "assay_type": "binding", "details": "read-out: % Inh. Adrenergic α1B"}, "Melanocortin MC1": {"target": "T6, Melanocortin MC1 (Homo sapiens, UniProt Q01726)", "T6 construct": "purchased Eurofins Cereps Panlabs", "assay": "Safetyscreen: MC1", "assay_type": "binding", "details": "read-out: % Inh. Melanocortin MC1"}, "[4]": {"target": "T7, Glutamate, Metabotropic, mGlu5 (Homo sapiens, UniProt P41594)", "T7 construct": "purchased Eurofins Cereps Panlabs", "T7 sequence (P41594 21-1212)": "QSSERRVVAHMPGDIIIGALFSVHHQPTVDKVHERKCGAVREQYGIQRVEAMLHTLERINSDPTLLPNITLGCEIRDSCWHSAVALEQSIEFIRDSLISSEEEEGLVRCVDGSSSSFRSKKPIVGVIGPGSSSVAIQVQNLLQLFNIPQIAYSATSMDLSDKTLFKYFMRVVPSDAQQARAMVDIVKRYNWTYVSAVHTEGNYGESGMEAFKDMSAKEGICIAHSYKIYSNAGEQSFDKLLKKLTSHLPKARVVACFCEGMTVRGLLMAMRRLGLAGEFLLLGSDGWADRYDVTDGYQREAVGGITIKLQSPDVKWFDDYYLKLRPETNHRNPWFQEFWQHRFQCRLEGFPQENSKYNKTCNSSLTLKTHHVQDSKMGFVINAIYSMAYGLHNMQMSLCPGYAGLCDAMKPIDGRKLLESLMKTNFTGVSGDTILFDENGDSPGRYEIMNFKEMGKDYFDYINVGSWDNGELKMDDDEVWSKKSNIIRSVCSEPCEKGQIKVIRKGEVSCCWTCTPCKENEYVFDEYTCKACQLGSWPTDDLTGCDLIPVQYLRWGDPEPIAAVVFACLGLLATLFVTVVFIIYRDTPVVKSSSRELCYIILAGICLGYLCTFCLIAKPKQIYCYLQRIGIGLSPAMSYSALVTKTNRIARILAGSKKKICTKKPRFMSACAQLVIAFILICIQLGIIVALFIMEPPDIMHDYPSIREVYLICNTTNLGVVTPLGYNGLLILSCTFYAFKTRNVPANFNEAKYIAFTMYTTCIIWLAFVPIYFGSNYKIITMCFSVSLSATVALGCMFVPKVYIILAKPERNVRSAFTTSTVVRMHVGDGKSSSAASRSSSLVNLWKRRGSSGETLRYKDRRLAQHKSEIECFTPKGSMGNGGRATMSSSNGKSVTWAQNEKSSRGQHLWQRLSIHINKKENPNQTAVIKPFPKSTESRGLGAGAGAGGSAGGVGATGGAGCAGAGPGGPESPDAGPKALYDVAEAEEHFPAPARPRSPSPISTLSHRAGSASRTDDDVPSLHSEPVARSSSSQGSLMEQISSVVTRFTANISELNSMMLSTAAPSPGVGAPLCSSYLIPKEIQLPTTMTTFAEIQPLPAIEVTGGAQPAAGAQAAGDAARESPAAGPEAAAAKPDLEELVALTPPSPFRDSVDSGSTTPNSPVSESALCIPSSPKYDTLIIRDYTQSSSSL", "assay": "Safetyscreen: mGlu5", "assay_type": "binding", "details": "read-out: % Inh. Glutamate, Metabotropic, mGlu5"}, "[5]": {"system": "Calcium Channel L-Type, Benzothiazepine", "assay": "Safetyscreen: Ca channel L-type, benzothiazepine", "assay_type": "binding, rat", "details": "10 μM"}, "[6]": {"details": "Huh7 tumor-bearing nude mice, once daily dosing"}},
  "data": [
    {"smiles": "CS(=O)(=O)N1CCN(C(=O)c2cnc3ccc(F)cc3c2N2CCC(C#N)(c3ccccc3)CC2)CC1", "note": "[Compound C-86, 1-(6-fluoro-3-(4-(methylsulfonyl)piperazine-1-carbonyl)quinolin-4-yl)-4-phenylpiperidine-4-carbonitrile]", "values": [
      {"measurement": "tumor mass and volume", "setting": "Huh7 tumors; Huh7, C-86 versus C-97 (FIGS. 17A-17B)", "result": "significant reduction in tumor mass and volume"},
      {"measurement": "dose dependence of effect on tumor volume and tumor mass", "setting": "Huh7 tumors; Huh7, FIGS. 13A-13B", "result": "dose-dependent effect"},
      {"measurement": "tumor suppression in the absence of TAMs", "setting": "Huh7 tumors; Huh7, TAM depletion with CloLipo", "result": "did not further suppress tumors"},
      {"measurement": "tumor mass and volume", "setting": "Huh7 tumors; Huh7, intraperitoneal administration, compared to a control (FIGS. 12B-12C)", "result": "significant reduction in tumor mass and volume"},
      {"measurement": "tumor mass", "setting": "Huh7 tumors; Huh7, macrophage depletion study (FIG. 14B)", "result": "significant reduction in tumor mass"},
      {"measurement": "dose at which weight loss was observed", "setting": "Huh7 tumors; [6]", "result": 40, "unit": "mg/kg"},
      {"measurement": "dose with tumor suppressive effects", "setting": "Huh7 tumors; [6]", "result": "> 10", "unit": "mg/kg"},
      {"measurement": "RALDH activity in tumor cells (AldeRed at endpoint)", "setting": "Huh7 tumors; Huh7 tumors, CD45− cells", "result": "reduced RADLH activity"},
      {"measurement": "response of RALDH1-KO HCC tumors to therapy", "setting": "Huh7 tumors; RALDH1-KO Huh7, i.p, 10 mg/kg every day", "result": "did not respond"},
      {"measurement": "tumor inhibition", "setting": "Huh7 tumors; huh7 in immunodeficient mice, i.p, 10 mg/kg every day", "result": "significant tumor inhibition"},
      {"measurement": "bio-distribution in various tissues", "setting": "[1]; delivered i.p.", "result": "good bio-distribution"},
      {"measurement": "AUC(0-inf)", "setting": "[1]; 10 mg/kg, adipose (mesenteric)", "result": 121000, "unit": "ng·h/mL"},
      {"measurement": "Cmax", "setting": "[1]; 10 mg/kg, adipose (mesenteric)", "result": 45200, "unit": "ng/mL"},
      {"measurement": "AUC(0-inf)", "setting": "[1]; 10 mg/kg, brain", "result": 753, "unit": "ng·h/mL"},
      {"measurement": "Cmax", "setting": "[1]; 10 mg/kg, brain", "result": 362, "unit": "ng/mL"},
      {"measurement": "AUC(0-inf)", "setting": "[1]; 10 mg/kg, liver", "result": 32900, "unit": "ng·h/mL"},
      {"measurement": "Cmax", "setting": "[1]; 10 mg/kg, liver", "result": 27600, "unit": "ng/mL"},
      {"measurement": "AUC(0-inf)", "setting": "[1]; 10 mg/kg, pancreas", "result": 35000, "unit": "ng·h/mL"},
      {"measurement": "Cmax", "setting": "[1]; 10 mg/kg, pancreas", "result": 34400, "unit": "ng/mL"},
      {"measurement": "AUC(0-inf)", "setting": "[1]; 10 mg/kg, plasma", "result": 3720, "unit": "ng·h/mL"},
      {"measurement": "Cmax", "setting": "[1]; 10 mg/kg, plasma", "result": 2930, "unit": "ng/mL"},
      {"measurement": "AUC(0-inf)", "setting": "[1]; 30 mg/kg, adipose (mesenteric)", "result": 832000, "unit": "ng·h/mL"},
      {"measurement": "Cmax", "setting": "[1]; 30 mg/kg, adipose (mesenteric)", "result": 140000, "unit": "ng/mL"},
      {"measurement": "AUC(0-inf)", "setting": "[1]; 30 mg/kg, brain", "result": 4520, "unit": "ng·h/mL"},
      {"measurement": "Cmax", "setting": "[1]; 30 mg/kg, brain", "result": 1150, "unit": "ng/mL"},
      {"measurement": "AUC(0-inf)", "setting": "[1]; 30 mg/kg, liver", "result": 174000, "unit": "ng·h/mL"},
      {"measurement": "Cmax", "setting": "[1]; 30 mg/kg, liver", "result": 70500, "unit": "ng/mL"},
      {"measurement": "AUC(0-inf)", "setting": "[1]; 30 mg/kg, pancreas", "result": 276000, "unit": "ng·h/mL"},
      {"measurement": "Cmax", "setting": "[1]; 30 mg/kg, pancreas", "result": 149000, "unit": "ng/mL"},
      {"measurement": "AUC(0-inf)", "setting": "[1]; 30 mg/kg, plasma", "result": 28000, "unit": "ng·h/mL"},
      {"measurement": "Cmax", "setting": "[1]; 30 mg/kg, plasma", "result": 11600, "unit": "ng/mL"},
      {"measurement": "inhibition at 10 µM", "setting": "Progesterone PR-B", "result": 1, "unit": "%"},
      {"measurement": "HCC cell growth in vitro", "setting": "SNU398 cells", "result": "did not inhibit HCC cell growth in vitro"},
      {"measurement": "inhibition at 10 µM", "setting": "[2]", "result": 0, "unit": "%"},
      {"measurement": "inhibition at 10 µM", "setting": "[3]", "result": 3, "unit": "%"},
      {"measurement": "% Inh. Glutamate, NMDA, Glycine", "setting": "Glutamate, NMDA, Glycine", "result": 20, "unit": "%"},
      {"measurement": "inhibition at 10 µM", "setting": "Muscarinic M2", "result": 4, "unit": "%"},
      {"measurement": "inhibition at 10 µM", "setting": "Adrenergic α1B", "result": 6, "unit": "%"},
      {"measurement": "inhibition at 10 µM", "setting": "Melanocortin MC1", "result": 8, "unit": "%"},
      {"measurement": "inhibition at 10 µM", "setting": "[4]", "result": 16, "unit": "%"},
      {"measurement": "% Inh. Calcium Channel L-Type, Benzothiazepine", "setting": "[5]", "result": "−3", "unit": "%"}
    ]}
  ]
}
